Consider three compounds from ChEMBL document CHEMBL5724914, “Linking interpersonal differences in gut microbiota composition and drug biotransformation activity” (2024).

Structures are written as SMILES.

The nature of data set [1]: The drug is tested on Z-029 corresponding to rat gut metagenome with ENA study accession number: PRJEB37062 and ENA sample accession number: ERS12561828 for biotransformation under anaerobic condition. The drug concentrations were measured over 9 timepoints collected between 0 and 24 hours of incubation by liquid-chromatography-coupled mass spectrometry (LC–MS). Conditions: 2 µM.

Data set [2] is described as follows: The drug is tested on Z-028 corresponding to mouse gut metagenome with ENA study accession number: PRJEB37062 and ENA sample accession number: ERS12561827 for biotransformation under anaerobic condition. The drug concentrations were measured over 9 timepoints collected between 0 and 24 hours of incubation by liquid-chromatography-coupled mass spectrometry (LC–MS). As to conditions: 2 µM.

Data set [3] in a line: The drug is tested on Z-027 corresponding to metagenome with ENA study accession number: PRJEB37062 and ENA sample accession number: ERS12561826 for biotransformation under anaerobic condition. The drug concentrations were measured over 9 timepoints collected between 0 and 24 hours of incubation by liquid-chromatography-coupled mass spectrometry (LC–MS). Conditions: 2 µM.

The nature of data set [4]: The drug is tested on Z-026 corresponding to metagenome with ENA study accession number: PRJEB37062 and ENA sample accession number: ERS12561825 for biotransformation under anaerobic condition. The drug concentrations were measured over 9 timepoints collected between 0 and 24 hours of incubation by liquid-chromatography-coupled mass spectrometry (LC–MS). Conditions: 2 µM.

A short description of data set [5]: The drug is tested on Z-018 corresponding to pig gut metagenome with ENA study accession number: PRJEB37062 and ENA sample accession number: ERS12561817 for biotransformation under anaerobic condition. The drug concentrations were measured over 9 timepoints collected between 0 and 24 hours of incubation by liquid-chromatography-coupled mass spectrometry (LC–MS). As to conditions: 2 µM.

Data set [6] in a line: The drug is tested on Z-007 corresponding to rat gut metagenome with ENA study accession number: PRJEB37062 and ENA sample accession number: ERS12561807 for biotransformation under anaerobic condition. The drug concentrations were measured over 9 timepoints collected between 0 and 24 hours of incubation by liquid-chromatography-coupled mass spectrometry (LC–MS). Conditions: 2 µM.

A short description of data set [7]: The drug is tested on Z-003 corresponding to pig gut metagenome with ENA study accession number: PRJEB37062 and ENA sample accession number: ERS12561803 for biotransformation under anaerobic condition. The drug concentrations were measured over 9 timepoints collected between 0 and 24 hours of incubation by liquid-chromatography-coupled mass spectrometry (LC–MS). As to conditions: 2 µM.

The nature of data set [8]: The drug is tested on WLS-310 corresponding to human gut metagenome with ENA study accession number: PRJEB37062 and ENA sample accession number: ERS12561785 for biotransformation under anaerobic condition. The drug concentrations were measured over 9 timepoints collected between 0 and 24 hours of incubation by liquid-chromatography-coupled mass spectrometry (LC–MS). Conditions: 2 µM.

A short description of data set [9]: The drug is tested on WLS-240 corresponding to human gut metagenome with ENA study accession number: PRJEB37062 and ENA sample accession number: ERS12561773 for biotransformation under anaerobic condition. The drug concentrations were measured over 9 timepoints collected between 0 and 24 hours of incubation by liquid-chromatography-coupled mass spectrometry (LC–MS). Conditions: 2 µM.

A short description of data set [10]: The drug is tested on WLS-170 corresponding to human gut metagenome with ENA study accession number: PRJEB37062 and ENA sample accession number: ERS12561762 for biotransformation under anaerobic condition. The drug concentrations were measured over 9 timepoints collected between 0 and 24 hours of incubation by liquid-chromatography-coupled mass spectrometry (LC–MS). As to conditions: 2 µM.

Data set [11] can be described thus: The drug is tested on WLS-098 corresponding to human gut metagenome with ENA study accession number: PRJEB37062 and ENA sample accession number: ERS12561754 for biotransformation under anaerobic condition. The drug concentrations were measured over 9 timepoints collected between 0 and 24 hours of incubation by liquid-chromatography-coupled mass spectrometry (LC–MS). As to conditions: 2 µM.

A short description of data set [12]: The drug is tested on WLS-077 corresponding to human gut metagenome with ENA study accession number: PRJEB37062 and ENA sample accession number: ERS12561750 for biotransformation under anaerobic condition. The drug concentrations were measured over 9 timepoints collected between 0 and 24 hours of incubation by liquid-chromatography-coupled mass spectrometry (LC–MS). Conditions: 2 µM.

A short description of data set [13]: The drug is tested on WLS-006 corresponding to human gut metagenome with ENA study accession number: PRJEB37062 and ENA sample accession number: ERS12561741 for biotransformation under anaerobic condition. The drug concentrations were measured over 9 timepoints collected between 0 and 24 hours of incubation by liquid-chromatography-coupled mass spectrometry (LC–MS). Conditions: 2 µM.

The conditions of data set [14]: human gut metagenome, 24 h, 2 µM.
For data set [15] the following is noted: human gut metagenome, 24 h, 2 µM. The source holds these as a separate data set.
The conditions of data set [16]: human gut metagenome, 24 h, 2 µM. This is another data set of the same source.
For data set [17] the following is noted: human gut metagenome, 24 h, 2 µM. The source holds these as a separate data set.
For data set [18] the following is noted: human gut metagenome, 24 h, 2 µM. The source holds these as a separate data set.
For data set [19] the following is noted: human gut metagenome, 24 h, 2 µM. This is another data set of the same source.
The conditions of data set [20]: human gut metagenome, 24 h, 2 µM. This is another data set of the same source.
Also: call rule not given here.

Turning to `CC(CN(C)C)CN1c2ccccc2CCc2ccccc21.O=C(O)/C=C\C(=O)O` (stereo not given) [TRIMIPRAMINE MALEATE], the “Bacterial Biotransformation” value was “Compound NOT metabolized” in data set [1]; “Compound NOT metabolized” in data set [2]; “Compound NOT metabolized” in [3]; “Compound metabolized” in data set [4]; “Compound NOT metabolized” in data set [5]; “Compound NOT metabolized” in data set [6]. The “Bacterial Biotransformation” value is on record as “Compound metabolized” in [7]; “Compound metabolized” in [8]; “Compound metabolized” in data set [9]; “Compound metabolized” in data set [10]; “Compound metabolized” in data set [11]; “Compound NOT metabolized” in data set [12]. Further, the “Bacterial Biotransformation” value in data set [13], in data set [14], in data set [15], in data set [16], in data set [17] and in data set [18] was “Compound metabolized” throughout. Moreover, the “Bacterial Biotransformation” value in [19] and in data set [20] was “Compound NOT metabolized” throughout.
Take `CC(=O)CC(c1ccccc1)c1c(O)c2ccccc2oc1=O` (stereo not given) [WARFARIN]: the “Bacterial Biotransformation” value in data set [1] was “Compound NOT metabolized”; in data set [2] it was “Compound metabolized”; in data set [3], “Compound NOT metabolized”; in data set [4], “Compound NOT metabolized”; in data set [5], “Compound metabolized”; in data set [6] it was “Compound NOT metabolized”. The “Bacterial Biotransformation” value in data set [7], in [8], in [9], in [10], in data set [11] and in data set [12] was “Compound metabolized” each time. Also, the “Bacterial Biotransformation” value in data set [13] is recorded as “Compound metabolized”; in data set [14], “Compound metabolized”; in data set [15], “Compound NOT metabolized”; in data set [16], “Compound metabolized”; in [17] it was “Compound metabolized”; in [18], “Compound metabolized”. Moreover, the entries for the “Bacterial Biotransformation” value in data set [19] and in [20] were “Compound NOT metabolized” and “Compound metabolized”, respectively.
Regarding `Cc1ccc(-c2nc3ccc(C)cn3c2CC(=O)N(C)C)cc1` [ZOLPIDEM], the “Bacterial Biotransformation” value in data set [1], in data set [2], in data set [3], in data set [4], in [5] and in data set [6] was “Compound NOT metabolized” each time. Besides, the “Bacterial Biotransformation” value in [7] is recorded as “Compound metabolized”; in [8] it was “Compound metabolized”; in data set [9], “Compound metabolized”; in data set [10] it was “Compound NOT metabolized”; in data set [11], “Compound metabolized”; in data set [12], “Compound NOT metabolized”. The “Bacterial Biotransformation” value is listed as “Compound NOT metabolized” in [13]; “Compound NOT metabolized” in [14]; “Compound NOT metabolized” in data set [15]; “Compound NOT metabolized” in [16]; “Compound metabolized” in data set [17]; “Compound metabolized” in data set [18]. Moreover, the “Bacterial Biotransformation” value in data set [19] and in [20] was “Compound NOT metabolized” throughout.
